This is an account of results in ChEMBL document CHEMBL1201862, “PubChem BioAssay data set” (2004).

Structures are written as SMILES.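 Compound exposure: 48 hours, 5 concentrations, 96-well plates. GI50: concentration for 50% inhibition of growth.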 Calls of active or inactive are those of the source. Rule as the data show it: active = GI50 up to about 1.1 µM and inactive = higher. Bounds are passed on as bounds.

Among the test systems are A498; ACHN; DLD-1; HCT-15; HOP-62; HOP-92; KM12; LOX IMVI; OVCAR-3; OVCAR-4; OVCAR-5; RXF 393; SF-268; SF-295; SK-OV-3; SNB-19; TK-10; UACC-257.
What all share (experiment): NCI-60 cell line screen, 48 h

Consider `Cc1oc2c(C)c3oc(=O)cc(C)c3cc2c1CN1C(=O)C2OCCOCCOCCOCCOCCO[C@H]2C1=O` (stereo partly specified), for which the GI50 in the assay with A498 is > 100 µM (inactive); in the assay on ACHN it was > 100 µM (inactive); in the assay on DLD-1, > 100 µM (inactive); in the assay on HCT-15 it was greater than 100 µM; in the assay on HOP-62, > 100 µM (inactive); with HOP-92 it was > 100 µM (inactive). Moreover, the GI50 with KM12, with LOX IMVI, in the assay on OVCAR-3, with OVCAR-4, with OVCAR-5 and in the assay with RXF 393 was > 100 µM (inactive) in each case. Moreover, the GI50 with SF-268, in the assay with SF-295, in the assay on SK-OV-3, in the assay on SNB-19, in the assay on TK-10 and in the assay on UACC-257 was > 100 µM (inactive) each time.
For `Cc1cccc(Cl)c1NC(N)=S`, the GI50 with A498 was 66.7 µM (inactive); with ACHN it was 27.5 µM (inactive); in the assay with DLD-1, 57.7 µM (inactive); with HCT-15, 18.4 µM; in the assay on HOP-62, 50.8 µM (inactive); in the assay with HOP-92, 35.4 µM (inactive). Moreover, the GI50 with KM12 is > 100 µM (inactive); in the assay on OVCAR-3, 26.4 µM (inactive); in the assay on OVCAR-4, 50.9 µM (inactive); in the assay with OVCAR-5, 63.8 µM (inactive); in the assay on SF-268, 51.3 µM (inactive); in the assay with SF-295, 73.8 µM (inactive). The GI50 in the assay on SK-OV-3 is 44.4 µM (inactive); with SNB-19 it was 81.5 µM (inactive); in the assay with TK-10, 50.9 µM (inactive); in the assay with UACC-257, > 100 µM (inactive).
As for `Cc1ccc2nc(/C(=C/c3ccc(/C=C(\NC(=O)c4ccccc4)c4nc5ccc(C)cc5[nH]4)c(C)c3)NC(=O)c3ccccc3)[nH]c2c1`, the GI50 is 11.4 µM (inactive) in the assay on A498; 8.45 µM (inactive) in the assay with ACHN; 3.02 µM (inactive) in the assay with DLD-1; 3.13 µM in the assay on HCT-15; 46.6 µM (inactive) in the assay on HOP-62; 16.4 µM (inactive) in the assay on HOP-92. Also, the GI50 in the assay with KM12 was 17.1 µM (inactive); in the assay with OVCAR-3, 6.19 µM (inactive); with OVCAR-5 it was 19.6 µM (inactive); in the assay with SF-268, 3.45 µM (inactive); in the assay with SK-OV-3 it was 13.7 µM (inactive); in the assay on SNB-19, 31.2 µM (inactive). For the same compound, the GI50 in the assay with TK-10 was 47.1 µM (inactive).
For `COc1ccccc1NC(=O)CSC(N)=O`, the GI50 is > 100 µM (inactive) with A498; 42.3 µM (inactive) in the assay on ACHN; 42.1 µM (inactive) in the assay with DLD-1; 42.8 µM with HCT-15; 24.7 µM (inactive) in the assay on HOP-62; > 100 µM (inactive) with HOP-92. For the same compound, the GI50 was 49.5 µM (inactive) with KM12; 36.4 µM (inactive) in the assay on LOX IMVI; 57.8 µM (inactive) with OVCAR-3; > 100 µM (inactive) with OVCAR-4; > 100 µM (inactive) in the assay on OVCAR-5; 53.8 µM (inactive) in the assay on SF-268. Moreover, the GI50 with SF-295 is 38.4 µM (inactive); with SK-OV-3, > 100 µM (inactive); in the assay with SNB-19 it was > 100 µM (inactive); with TK-10, > 100 µM (inactive); with UACC-257 it was 62.2 µM (inactive).
On to `COc1nc(N)c(C(=O)CCl)c(=O)n1C`, for which the GI50 in the assay on A498 is 15.4 µM (inactive); with ACHN, 20.6 µM (inactive); with DLD-1 it was 13.2 µM (inactive); in the assay on HOP-92, 4.66 µM (inactive); with KM12, 14.3 µM (inactive); with LOX IMVI it was 5.28 µM (inactive). Also, the GI50 was 15.4 µM (inactive) in the assay with OVCAR-4; 20.2 µM (inactive) in the assay with OVCAR-5; 7.35 µM (inactive) with RXF 393; 19.1 µM (inactive) in the assay on SF-268; 15.2 µM (inactive) with SF-295; 17.7 µM (inactive) in the assay on SNB-19. Also, the figures for the GI50 in the assay with TK-10 and in the assay on UACC-257 were 14.7 µM (inactive) and 11.5 µM (inactive), respectively.
As to `O=C1N[C@@H]2CCCC[C@@H]2C12CCCCC2`, the GI50 with A498, with ACHN, in the assay on DLD-1, in the assay on HOP-62, with KM12 and in the assay with LOX IMVI was > 100 µM (inactive) throughout. Moreover, the GI50 in the assay with OVCAR-3, in the assay on OVCAR-4, in the assay on OVCAR-5, with RXF 393, in the assay on SF-268 and in the assay on SF-295 was > 100 µM (inactive) in each case. The GI50 in the assay on SK-OV-3, with SNB-19, with TK-10 and in the assay on UACC-257 was > 100 µM (inactive) each time.
Consider `CCCCCCCC(=O)OC(COC(=O)Cc1ccccc1)COC(=O)C(C)(C)C` (stereo unspecified), for which the GI50 is > 100 µM (inactive) with A498; > 100 µM (inactive) with ACHN; > 100 µM (inactive) with DLD-1; greater than 100 µM in the assay on HCT-15; > 100 µM (inactive) in the assay on HOP-62; 32.8 µM (inactive) in the assay with HOP-92. For the same compound, the GI50 with LOX IMVI, in the assay with OVCAR-3, in the assay with OVCAR-4, with OVCAR-5, in the assay on SF-268 and in the assay on SF-295 was > 100 µM (inactive) throughout. Moreover, the GI50 in the assay with SK-OV-3, in the assay with SNB-19 and in the assay with TK-10 was > 100 µM (inactive) each time.
In the case of `O=C(NCCO)c1cc2c(cn1)[nH]c1ccccc12`, the GI50 in the assay on A498 is > 100 µM (inactive); in the assay on ACHN, > 100 µM (inactive); in the assay with DLD-1, 24.7 µM (inactive); in the assay with HCT-15 it was greater than 100 µM; in the assay on HOP-62, 17.9 µM (inactive); with HOP-92 it was > 100 µM (inactive). Besides, the GI50 in the assay on KM12, in the assay with LOX IMVI, in the assay on OVCAR-3, in the assay on OVCAR-4, in the assay with OVCAR-5 and in the assay on RXF 393 was > 100 µM (inactive) in each case. The GI50 in the assay with SF-268, with SF-295, in the assay with SK-OV-3, with SNB-19, in the assay with TK-10 and in the assay on UACC-257 was > 100 µM (inactive) in each case.
In the case of `O=C(/N=C(/Nc1ccccc1)SCS/C(=N\C(=O)c1ccco1)Nc1ccccc1)c1ccco1`, the GI50 with A498 was 27.1 µM (inactive); in the assay with ACHN, 38.8 µM (inactive); in the assay with DLD-1 it was 44 µM (inactive); in the assay with HCT-15, greater than 100 µM; in the assay on HOP-62 it was 19.5 µM (inactive); in the assay with HOP-92, 18.7 µM (inactive). The GI50 was > 100 µM (inactive) with KM12; > 100 µM (inactive) in the assay with LOX IMVI; 40.8 µM (inactive) in the assay with OVCAR-3; 82.2 µM (inactive) in the assay on OVCAR-4; > 100 µM (inactive) with OVCAR-5; 15.1 µM (inactive) in the assay with RXF 393. Further, the GI50 in the assay with SF-268 was 22.5 µM (inactive); in the assay on SF-295, 26.5 µM (inactive); in the assay with SNB-19, 24 µM (inactive); with TK-10 it was 29.4 µM (inactive); in the assay with UACC-257, > 100 µM (inactive).
For the compound `CN(C)c1ccc(O[Si](Oc2ccc(N(C)C)cc2)(Oc2ccc(N(C)C)cc2)Oc2ccc(N(C)C)cc2)cc1`, the GI50 in the assay with A498 was > 100 µM (inactive); with ACHN, > 100 µM (inactive); in the assay with DLD-1, > 100 µM (inactive); in the assay on HOP-62 it was > 100 µM (inactive); in the assay with HOP-92 it was > 100 µM (inactive); in the assay on KM12, 71.6 µM (inactive). The GI50 was 79.1 µM (inactive) in the assay on LOX IMVI; 51.6 µM (inactive) in the assay on OVCAR-3; > 100 µM (inactive) with OVCAR-4; > 100 µM (inactive) with OVCAR-5; > 100 µM (inactive) in the assay with SF-268; 86.3 µM (inactive) with SF-295. Moreover, the GI50 in the assay with SK-OV-3 is > 100 µM (inactive); in the assay with SNB-19 it was > 100 µM (inactive); in the assay on TK-10 it was > 100 µM (inactive); in the assay with UACC-257, 85.1 µM (inactive).
On to `CN(C)CCC1(C2=CCCC2)CC/C(=C\c2ccc3c(c2)OCO3)C1=O` (stereo unspecified), for which the GI50 is 12.2 µM (inactive) in the assay with A498; 16.1 µM (inactive) with ACHN; 17.1 µM (inactive) in the assay on DLD-1; 13.9 µM with HCT-15; 11.4 µM (inactive) in the assay on HOP-92; 15.8 µM (inactive) with KM12. In addition, the GI50 with OVCAR-3 is 15.8 µM (inactive); in the assay on OVCAR-4, 13.5 µM (inactive); in the assay on OVCAR-5, 15.8 µM (inactive); with RXF 393, 9.14 µM (inactive); in the assay on SF-268, 14.4 µM (inactive); in the assay with SF-295 it was 16 µM (inactive). For the same compound, the GI50 is 18.2 µM (inactive) in the assay on SNB-19, 15.8 µM (inactive) in the assay on TK-10 and 15.5 µM (inactive) in the assay on UACC-257.
For `O=c1cccccc1NCCOCCNc1cccccc1=O`, the GI50 was > 100 µM (inactive) with A498; > 100 µM (inactive) in the assay on ACHN; > 100 µM (inactive) with DLD-1; greater than 100 µM in the assay with HCT-15; > 100 µM (inactive) in the assay with HOP-62; > 100 µM (inactive) with KM12. The GI50 in the assay on LOX IMVI, in the assay on OVCAR-3, in the assay with OVCAR-4, in the assay with OVCAR-5, in the assay on SF-268 and in the assay on SF-295 was > 100 µM (inactive) throughout. Also, the GI50 in the assay on SK-OV-3, in the assay on SNB-19, in the assay with TK-10 and with UACC-257 was > 100 µM (inactive) throughout.
